# Test results published in ChEMBL document CHEMBL1156493, “Histone deacetylase inhibitors suppress TF-kappaB-dependent agonist-driven tissue factor expression in endothelial cells and monocytes” (J Biol Chem, 2007).
# The source made the active and inactive calls. No cut-off for these calls is given here.
# Key:
# [1] = system: HUVEC; assay: Effect on TNF-alpha-induced NF-kappaB activation assessed as p65/p50 binding to NF-kappaB in HUVEC at 0.3 uM preincubated for 4 hrs measured after 0.5 hrs of TNFalpha challenge by electrophoretic shift mobility assay; type: cell-based; settings: Homo sapiens
# [2] = system: HUVEC; assay: Inhibition of TNF-alpha-induced tissue factor protein expression in HUVEC preincubated for 4 hrs assessed after 4 hrs of TNFalpha challenge by Western blotting; type: functional, cell-based; settings: Homo sapiens
# [3] = system: HUVEC; assay: Effect on TNF-alpha-induced Egr1 protein level in HUVEC preincubated for 4 hrs assessed after 0.5 hrs of TNFalpha challenge by Western blotting; type: functional, cell-based; settings: Homo sapiens
# [4] = system: HUVEC; assay: Reduction of tissue factor mRNA level in TNF-alpha-stimulated HUVEC at 1 uM preincubated for 4 hrs assessed after 1 to 2 hrs of TNFalpha challenge by RT-PCR; type: functional, cell-based; settings: Homo sapiens
# [5] = target: T1, Tissue factor (Mus musculus) (UniProt P20352); assay: Inhibition of IL-1-beta-induced tissue factor activity in C57BL/6J mouse macrophages preincubated for 4 hrs assessed after 5 hrs of IL1-beta challenge by one stage clotting assay; settings: concentration not given here
# T1 sequence (whole entry): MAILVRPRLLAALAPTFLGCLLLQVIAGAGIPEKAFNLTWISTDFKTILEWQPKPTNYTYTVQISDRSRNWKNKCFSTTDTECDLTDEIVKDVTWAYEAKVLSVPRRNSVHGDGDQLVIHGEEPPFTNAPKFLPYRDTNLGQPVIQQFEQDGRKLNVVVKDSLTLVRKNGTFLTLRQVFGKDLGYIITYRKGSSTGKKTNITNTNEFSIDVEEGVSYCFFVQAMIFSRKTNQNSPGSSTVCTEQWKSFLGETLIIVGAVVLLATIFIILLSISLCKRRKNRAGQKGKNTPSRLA
# [6] = system: HUVEC; assay: Effect on TNF-alpha-induced NF-kappaB activation assessed as p65/p50 binding to NF-kappaB in HUVEC at 1 uM preincubated for 4 hrs measured after 0.5 hrs of TNFalpha challenge by electrophoretic shift mobility assay; type: cell-based; settings: Homo sapiens
# [7] = system: HUVEC; assay: Inhibition of TNF-alpha-induced p65 binding to ICAM1 NF-kappaB in HUVEC preincubated for 4 hrs assessed after 0.5 hrs of TNFalpha challenge by chromatin immunoprecipitation assay; type: cell-based; settings: Homo sapiens
# [8] = system: HUVEC; assay: Effect on TNF-alpha-induced wild type NF-kappaB-dependent ICAM1 promoter expression in HUVEC preincubated for 4 hrs assessed after 6 hrs of TNFalpha challenge by luciferase reporter assay; type: cell-based; settings: Homo sapiens
# [9] = target: T1, Tissue factor (Mus musculus); assay: Inhibition of TNF-alpha-induced tissue factor activity in C57BL/6J mouse macrophages preincubated for 4 hrs assessed after 5 hrs of TNFalpha challenge by one stage clotting assay; settings: concentration not given here
# [10] = system: HUVEC; assay: Effect on TNF-alpha-induced NF-kappaB activation in HUVEC preincubated for 4 hrs assessed as increase in p65 level after 0.5 hrs of TNFalpha challenge by electrophoretic shift mobility assay; type: cell-based; settings: Homo sapiens
# [11] = target: T1, Tissue factor (Mus musculus); assay: Inhibition of baseline tissue factor activity in non-stimulated C57BL/6J mouse macrophages after 4 hrs by one stage clotting assay; settings: concentration not given here
# [12] = system: HUVEC; assay: Effect on TNF-alpha-induced SP1 protein level in HUVEC preincubated for 4 hrs assessed after 0.5 hrs of TNFalpha challenge by Western blotting; type: functional, cell-based; settings: Homo sapiens
# [13] = system: HUVEC; assay: Inhibition of IL-1-beta-induced tissue factor protein expression in HUVEC preincubated for 4 hrs assessed after 4 hrs of IL1-beta challenge by Western blotting; type: functional, cell-based; settings: Homo sapiens
# [14] = system: HUVEC; assay: Inhibition of LPS-induced tissue factor protein expression in HUVEC preincubated for 4 hrs assessed after 4 hrs of LPS challenge by Western blotting; type: functional, cell-based; settings: Homo sapiens
# [15] = target: Tissue factor (Homo sapiens) (UniProt P13726); assay: Inhibition of TNF-alpha-induced tissue factor activity in HUVEC at 1 uM preincubated for 4 hrs assessed after 4 hrs of TNFalpha challenge by one stage clotting assay; type: cell-based
# [16] = system: HUVEC; assay: Inhibition of LPS-induced wild type TFkappaB-dependent tissue factor promoter expression in HUVEC preincubated for 4 hrs assessed after 6 hrs of LPS challenge by luciferase reporter assay; type: cell-based; settings: Homo sapiens
# [17] = system: HUVEC; assay: Effect on TNF-alpha-induced TFkappaB activation assessed as p65/c-Rel binding to TFkappaB in HUVEC preincubated for 4 hrs measured after 0.5 hrs of TNFalpha challenge by electrophoretic shift mobility assay; type: cell-based; settings: Homo sapiens
# [18] = system: Mus musculus; assay: Decrease in thioglycolate-induced tissue factor activity in C57BL/6J mouse macrophage at 1 mg/kg, ip preincubated for 4 hrs assessed after 5 hrs of thioglycolate challenge by one stage clotting assay; type: functional; design: scale not given: the % may be the effect or the level left; settings: route intraperitoneal
# [19] = system: HUVEC; assay: Effect on LPS-induced wild type NF-kappaB-dependent ICAM1 promoter expression in HUVEC preincubated for 4 hrs assessed after 6 hrs of LPS challenge by luciferase reporter assay; type: cell-based; settings: Homo sapiens
# [20] = system: HUVEC; assay: Effect on TNF-alpha-induced NF-kappaB activation in HUVEC preincubated for 4 hrs assessed as increase in p50 level after 0.5 hrs of TNFalpha challenge by electrophoretic shift mobility assay; type: cell-based; settings: Homo sapiens
# [21] = system: HUVEC; assay: Effect on TNF-alpha-induced IkappaB degradation in HUVEC at 1 uM preincubated for 4 hrs assessed after 60 mins of TNFalpha challenge by Western blotting; type: functional, cell-based; settings: Homo sapiens
# [22] = target: T1, Tissue factor (Mus musculus); assay: Inhibition of LPS-induced tissue factor activity in C57BL/6J mouse macrophages preincubated for 4 hrs assessed after 5 hrs of LPS challenge by one stage clotting assay; settings: concentration not given here
# [23] = system: HUVEC; assay: Increase in acetylated histone H3 level in HUVEC preincubated for 4 hrs assessed after 0.5 hrs of TNFalpha challenge by Western blot; type: functional, cell-based; settings: Homo sapiens
# [24] = system: HUVEC; assay: Effect on TNF-alpha-induced NF-kappaB activation in HUVEC preincubated for 4 hrs assessed as increase in c-Rel level after 0.5 hrs of TNFalpha challenge by electrophoretic shift mobility assay; type: cell-based; settings: Homo sapiens
# [25] = system: HUVEC; assay: Increase in acetylated histone H4 level in HUVEC preincubated for 4 hrs assessed after 0.5 hrs of TNFalpha challenge by Western blot; type: functional, cell-based; settings: Homo sapiens
# [26] = system: HUVEC; assay: Inhibition of HOSCN-induced tissue factor protein expression in HUVEC preincubated for 4 hrs assessed after 4 hrs of HOSCN challenge by Western blotting; type: functional, cell-based; settings: Homo sapiens
# [27] = system: HUVEC; assay: Inhibition of TNFalpha induced wild type TFkappaB-dependent tissue factor promoter expression in HUVEC preincubated for 4 hrs assessed after 6 hrs of TNFalpha challenge by luciferase reporter assay; type: cell-based; settings: Homo sapiens
# [28] = target: Tissue factor (Homo sapiens) (UniProt P13726); assay: Inhibition of LPS-induced tissue factor activity in HUVEC at 0.3 uM preincubated for 4 hrs assessed after 4 hrs of LPS challenge by one stage clotting assay
# [29] = system: HUVEC; assay: Reduction of ICAM1 mRNA level in TNF-alpha-stimulated HUVEC at 1 uM preincubated for 4 hrs assessed after 1 to 2 hrs of TNFalpha challenge by RT-PCR; type: functional, cell-based; settings: Homo sapiens
# [30] = system: HUVEC; assay: Induction of PMA-induced wild type NF-kappaB-dependent ICAM promoter expression in HUVEC preincubated for 4 hrs assessed after 6 hrs of PMA challenge by luciferase reporter assay relative to control; type: cell-based; settings: Homo sapiens
# [31] = system: HUVEC; assay: Effect on TNF-alpha-induced TFkappaB activation assessed as p65/p50 binding to TFkappaB in HUVEC preincubated for 4 hrs measured after 0.5 hrs of TNFalpha challenge by electrophoretic shift mobility assay; type: cell-based; settings: Homo sapiens
# [32] = system: HUVEC; assay: Induction of PMA-induced wild type TFkappaB-dependent tissue factor promoter expression in HUVEC at 100 nM preincubated for 4 hrs assessed after 6 hrs of PMA challenge by luciferase reporter assay; type: cell-based; settings: Homo sapiens
# [33] = system: HUVEC; assay: Inhibition of TNF-alpha-induced p65 binding to TFkappaB in HUVEC preincubated for 4 hrs assessed after 0.5 hrs of TNFalpha challenge by chromatin immunoprecipitation assay; type: cell-based; settings: Homo sapiens
# [34] = target: Tissue factor (Homo sapiens) (UniProt P13726); assay: Inhibition of LPS-induced tissue factor activity in HUVEC at 6 uM preincubated for 4 hrs assessed after 4 hrs of LPS challenge by one stage clotting assay; type: cell-based
# [35] = target: Tissue factor (Homo sapiens) (UniProt P13726); assay: Inhibition of TNF-alpha-induced tissue factor activity in HUVEC at 6 uM preincubated for 4 hrs assessed after 4 hrs of TNFalpha challenge by one stage clotting assay; type: cell-based
# [36] = target: Tissue factor (Homo sapiens) (UniProt P13726); settings: HUVEC, 3 uM
# Description: Inhibition of TNF-alpha-induced tissue factor activity in HUVEC at 3 uM preincubated for 4 hrs assessed after 4 hrs of TNFalpha challenge by one stage clotting assay
# [37] = target: Tissue factor (Homo sapiens) (UniProt P13726); settings: HUVEC, 1 uM
# Description: Inhibition of LPS-induced tissue factor activity in HUVEC at 1 uM preincubated for 4 hrs assessed after 4 hrs of LPS challenge by one stage clotting assay
# [38] = target: Tissue factor (Homo sapiens) (UniProt P13726); assay: Inhibition of TNF-alpha-induced tissue factor activity in HUVEC at 10 uM preincubated for 4 hrs assessed after 4 hrs of TNFalpha challenge by one stage clotting assay; type: cell-based
# [39] = target: Tissue factor (Homo sapiens) (UniProt P13726); assay: Inhibition of LPS-induced tissue factor activity in HUVEC at 10 uM preincubated for 4 hrs assessed after 4 hrs of LPS challenge by one stage clotting assay; type: cell-based
# [40] = target: Tissue factor (Homo sapiens) (UniProt P13726); assay: Inhibition of TNF-alpha-induced tissue factor activity in HUVEC at 30 uM preincubated for 4 hrs assessed after 4 hrs of TNFalpha challenge by one stage clotting assay
# [41] = target: Tissue factor (Homo sapiens) (UniProt P13726); assay: Inhibition of LPS-induced tissue factor activity in HUVEC at 30 uM preincubated for 4 hrs assessed after 4 hrs of LPS challenge by one stage clotting assay; type: cell-based
# Chain of Tissue factor (Homo sapiens) (P13726 whole entry): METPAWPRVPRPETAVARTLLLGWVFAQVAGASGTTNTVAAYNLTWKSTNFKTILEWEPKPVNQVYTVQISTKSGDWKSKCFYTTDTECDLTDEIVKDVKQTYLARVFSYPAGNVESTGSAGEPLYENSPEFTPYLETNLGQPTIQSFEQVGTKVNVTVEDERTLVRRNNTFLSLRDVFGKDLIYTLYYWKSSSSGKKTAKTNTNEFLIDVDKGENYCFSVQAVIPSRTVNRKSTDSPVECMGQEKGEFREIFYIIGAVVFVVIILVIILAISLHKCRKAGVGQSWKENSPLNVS
structure (smiles),measurement,setting,value
CC(/C=C/C(=O)NO)=C\[C@@H](C)C(=O)c1ccc(N(C)C)cc1 [TRICHOSTATIN],Activity,[1],inactive
same,Activity,[2],Active
same,Activity,[3],inactive
same,Activity,[4],Active
same,inhibition,[5],60%
same,Activity,[6],inactive
same,Activity,[7],inactive
same,Activity,[8],inactive
same,inhibition,[9],60%
same,Activity,[10],inactive
same,inhibition,[11],60%
same,Activity,[12],inactive
same,Activity,[13],Active
same,Activity,[14],Active
same,inhibition,[15],95%
same,Activity,[16],Active
same,Activity,[17],Active
same,Activity,[18],50%
same,Activity,[19],inactive
same,Activity,[20],inactive
same,Activity,[21],inactive
same,inhibition,[22],60%
same,Activity,[23],Active
same,Activity,[24],inactive
same,Activity,[25],Active
same,Activity,[26],Active
same,Activity,[27],Active
same,inhibition,[28],91%
same,Activity,[29],inactive
same,Activity,[30],inactive
same,Activity,[31],Active
same,Activity,[32],75%
same,Activity,[33],Active
CCCC(CCC)C(=O)O,inhibition,[34],93%
same,inhibition,[35],81%
"CCC(=O)CCCCC[C@@H]1NC(=O)[C@H]2CCCCN2C(=O)[C@H](C(C)CC)NC(=O)[C@H](Cc2cn(OC)c3ccccc23)NC1=O (single isomer, unassigned)",inhibition,[36],85%
same,inhibition,[37],80%
CCCC(=O)[O-].[Na+],inhibition,[38],90%
same,inhibition,[39],95%
Nc1ccccc1NC(=O)c1ccc(CNC(=O)OCc2cccnc2)cc1,inhibition,[40],85%
same,inhibition,[41],92%
